| Compound | melting point [°C] |
| --- | --- |
| Cn1c(COc2ccc(CC3SC(=O)NC3=O)cc2)nc2ccc(-c3ccccc3)nc21 (stereo not given) | 211 to 213 |
| CCOC(=O)Cc1cccc2c(=O)cc(C3=CCCCC3)oc12 | 126 to 127 |
| COc1ccc(C2CC(n3cncn3)c3ccccc3N2)cc1 (stereo not given) | 170 to 172 |
| O=C(O)C(=O)Nc1cc(NC(=O)C(=O)O)cc(C(=O)O)c1 | > 320 |
| CCCCc1ncc(C(=O)OCC)c(NCc2ccc(-c3ccccc3-c3nnnn3C(c3ccccc3)(c3ccccc3)c3ccccc3)cc2)n1 | 116 to 118 |
| CC(C)(C)[Si](C)(C)OC1CN(c2ccc(NC(=O)OCc3ccccc3)cc2F)C1 | 91 to 93 |
| COc1c(C)cc(C)c2c1C(=O)C1CCCCC21 (stereo not given) | 72 to 74 |
| O=C(CCCCl)Nc1ccnn1-c1c(Cl)cc(C(F)(F)F)cc1Cl | 103 to 104 |
| CC(C)(C)OC(=O)N1CCCC(Nc2cc(Cl)n[nH]c2=O)C1 (stereo not given) | 195 to 196 |
| CCC1c2cccn2-c2ccc(Br)cc2N1S(=O)(=O)c1ccc(O)c(C)c1 (stereo not given) | 191 to 193 |
| O=C(c1cccc(C(F)(F)F)c1)c1ncccc1C(O)=NNc1c(Cl)cc(C(F)(F)F)cc1Cl | 92 to 96 |
| Cc1nc2c3c(ccn2c1C)[C@@](C)(O)[C@H](O)[C@@H](c1ccccc1)N3 | 137 to 138 |
| CC(C)(C)OC(=O)N1CCC(CC[C@@H]2CCCNC2=O)CC1 | 110 to 111 |
| COC(=O)c1cc(C(=O)OC)n(-c2ccc([N+](=O)[O-])cc2C(=O)c2ccccc2)n1 | 150 to 152 |
| CCCCc1nc2c(N)nc3ccccc3c2n1CCCCNS(C)(=O)=O | 195 to 196 |
| CC(=O)CNc1ccc(/C=C/C(=O)O)cc1 | 213 to 215 |
| COC(=O)C(C)(NC1OC(=O)C2C3C=CC(C3)C12)c1ccccc1 (stereo not given) | 120 |
| Cc1cnc(N)c(Br)n1 | 51 to 52 |
| O=C(NCCc1ccccc1Cl)c1c(Cl)ccc2nc(N3CC[C@H](NCCO)C3)ccc12 | 170 to 172 |
| CCC1(CC(=O)O)OCCc2nc(-c3ccc(Cl)cc3)sc21 (stereo not given) | 190 to 191 |
| CCOC(=O)c1c(CN2CCSCC2)nc2cc(OC)c(OC)cc2c1-c1ccc(OC)c(OC)c1 | 148 to 149 |

| Compound | melting point [°C] |
| --- | --- |
| CCn1ncc2c(NCC3CCCCC3)c3cccc(Br)c3nc21 | 160 to 162 |
| O=C1NC(C(=O)NCCO[N+](=O)[O-])C(c2ccco2)S1 (stereo not given) | 117 to 118 |
| O=C(N(c1ccccc1)c1nc(C(Cl)(Cl)Cl)ns1)C(Cl)(Cl)Cl | 158 |
| CC(=O)NNC(=O)NC1c2ccccc2Oc2ccccc21 | 226 to 228 |
| Cc1ccc2c(c1F)N(C1CC1)CNS2(=O)=O | 135 to 138 |
| COC(=O)N1CCC(c2ccccc2)C(O)C1 (stereo not given) | 139 to 140 |
| CS(=O)(=O)OCc1cn(-c2ccc(N3CCOCC3)c(F)c2)nn1 | 158 |
| Cc1ccccc1OCCCc1oc(-n2ccnc2)nc1-c1ccc(Cl)cc1 | 113 to 114 |
| CC(=O)NC[C@H]1CN(c2ccc(N3CCC(Cc4nnc(N)s4)CC3)c(F)c2)C(=O)O1 | 206 to 207 |
| CCOC(OCC)c1cc(Nc2ccc(OC)cc2)c(F)c(-c2ccc(Cl)cc2)n1 | 110 to 111 |
| Cc1nc(C#N)ccc1O | 201 to 205 |
| Cc1ccc(OCCCN2CCN(c3ccc(Cl)nn3)CC2)cc1 | 129 to 131 |
| COc1cc(OCc2oc(=O)oc2C)c(C(=O)CCc2ccc3occc3c2)cc1C1OC(CO)C(O)C(O)C1O (stereo not given) | 128 |
| CC(C)n1nc(C(=O)NCC2CCN(CC(=O)Nc3ccc(OCc4ccccc4)cc3)CC2)c2ccccc21 | 113 to 115 |
| COc1nncc(-c2cccc(C(F)(F)F)c2)n1 | 95 to 97 |
| O=C(O)[C@@H]1CCC(=O)N1C(=O)CCC1CCCC1 | 135 to 138 |
| O=C(Nc1cnc(-c2ccccc2)[nH]c1=O)OCc1ccccc1 | 217 to 219 |
| O=C1NC(=O)C(Cc2ccc(N3CCC(NC[C@H](O)c4cccc(Cl)c4)CC3)cc2)S1 (stereo not given in full) | 195 to 198 |
| CSc1nc(-c2cccnc2)c(-c2ccccc2)n1C | 123 to 127 |
| CSc1nccc(C(C#N)C(=O)c2ccccc2)n1 (stereo not given) | 163 to 164 |
| Cc1cc(CCCCNc2nc(CO)nn2C)sc1C=O | 118 to 121 |

| Compound | melting point [°C] |
| --- | --- |
| COc1ccc2c(Br)c(C)sc2c1 | 80 to 81 |
| CCCN1CCc2c(cccc2NC(C)=O)C1 | 123 |
| COc1ccc(C(C)C)c(NC(=O)CN2CCN(CCCSc3nc4c(C)c(Cl)cc(C(C)C)c4o3)CC2)c1C(C)C | 126 to 127 |
| COC(=O)c1ccc(CN2CCOc3ccc(NC(=O)CC4CCCC4)cc32)c(OC)c1 | 152 to 153 |
| COC(=O)c1ccc(COC(C)=O)nc1C1=NC(C)(C(C)C)C(=O)N1C(C)=O (stereo not given) | 111 to 112 |
| Nc1nc(Nc2ccc(S(N)(=O)=O)cc2)sc1C(=O)c1ccc(C(=O)O)cc1 | 298 to 300 |
| NC(=O)N(CCCl)C(c1ccccc1)P(=O)(O)O (stereo not given) | 195 |
| COc1cc(OC)nc(Sc2nccc(-c3cccc(Cl)c3)c2C(=O)NS(C)(=O)=O)n1 | 54 to 58 |
| CCOC(=O)OC1=C(c2cc(C)ccc2C)C(=O)N(OCOC)C12CCN(OC)CC2 | 109 to 111 |
| CC(C)n1nc(-c2sc(NC(=O)c3cccc(C(F)(F)F)c3)nc2-c2ccccc2)ccc1=O | 237 to 238 |
| CCOC(=O)c1cnn(-c2c(Cl)cc(C(F)(F)F)cc2Cl)c1C | 61 to 62 |
| CC(c1ccccc1)C1(OC(=O)C(C)(C)C)C(=O)NC(=O)NC1=O (stereo not given) | 205 to 207 |
| Cc1ccc(S(=O)(=O)OCC2Cc3c(F)ccc(Br)c3O2)cc1 (stereo not given) | 100 to 103 |
| CC(=O)OC(C)c1ccc2cc(OCc3ccccc3)ccc2c1 (stereo not given) | 97 to 98 |
| Cc1cc(=O)oc2nn(Cc3cccs3)c(C)c12 | 164 to 167 |
| Cc1cc(F)ccc1-c1nc(NC2CCCCC2)nc2c1CCC(=O)N2c1ccccc1F | 181 to 182 |
| NCc1ccc(Br)nc1 | 57 to 58 |
| O=C1CCCC(O)=C1C(=O)Nc1ccc(Cl)cc1 | 113 to 114 |
| CCOC(=O)c1cc2c(cn1)[nH]c1ccccc12 | 229 |
| CNC(=O)Oc1ccc(N=Cc2ccccc2O)c2c1OC(C)(C)C2 | 201 to 203 |

The remaining lines, values ahead:

| melting point [°C] | Compound |
| --- | --- |
| 215 to 216 | NC(=O)NCc1ccc(-c2ccc3oc([N+](=O)[O-])c(-c4ccccc4)c3c2)cc1 |
| 108 to 110 | COCc1ccc(Oc2cc(OC3CCOCC3)c3[nH]c(C4=NCC(CC(C)(C)O)S4)cc3c2)cn1 (stereo not given) |
| 178 to 180 | O=S(=O)(Nc1ncnc(OCCO)c1-c1cccc(Cl)c1)c1ccc(Cl)cc1 |
| 101 to 104 | CCOC(=O)Cc1cc(C)c(C(=O)c2ccc(Cl)cc2)n1C |
| 102 to 103 | CCOC(=O)CCc1cccc2c1NC(=O)CC2 |
| 78 to 84 | CC=CCn1c(C)c(C)c2cnnc(OCc3cc(F)cc(F)c3)c21 |
| 48 to 52 | CCOC(=O)[C@@H](O)CCNC(=O)[C@@H](CSC(C)=O)Cc1ccccc1C |
| 181 to 182 | O=C(NCCCCCCNC(=O)N(O)Cc1ccccc1)N(O)Cc1ccccc1 |
| 61 to 65 | CC(C)(C)c1ccc(-c2cc(-c3cccs3)[nH]n2)cc1 |
| 128 to 129 | CCOC(=O)c1[nH]c(Cl)nc1-c1ccccc1 |
| 169 to 170 | CCC(C)(C)NC(Nc1ccc2c(c1)OCO2)=C(C#N)S(=O)(=O)c1ccc(Cl)cc1 |
| 80 to 81 | CCNc1cccnc1N1CCN(C(=O)c2ccc(C(=O)OC)cn2)CC1 |
| 118 to 121 | O=C(O)CCC(NC(=O)c1ccc(-c2ccccc2OC2OC(CO)C(O)C(O)C2O)cc1)C(=O)O (stereo not given) |
| 181 | COc1ccccc1NS(=O)(=O)c1cccc(C=CC(=O)NO)c1 |
| 67 to 70 | Cn1ncnc1/C=C/c1ccccc1 |
| 266 to 267 | COC[C@H]1CCCN1NC(=O)c1ccc(-c2[nH]nc3c2C(=O)c2c(NC(=O)NN4CCOCC4)cccc2-3)s1 |
| 196 to 197 | COC(C)Cn1c(C)nc2c(N)nc3ccccc3c21 (stereo not given) |
| 230 to 232 | CN1C(=O)c2cccnc2Nc2ncccc21 |
| 195 to 197 | O=C(O)c1ccc(N2C(=O)CCC2(CO)CO)cc1 |

| melting point [°C] | Compound |
| --- | --- |
| 77 to 79 | CCNC(=O)c1ccccc1-c1ccccc1 |
| 151 to 156 | CC=CN(C=CC)c1ccc2[nH]c3cnc(-c4nc(CC)no4)cc3c2c1 |
| 210 to 214 | Cn1cc(-c2cc3nccnc3[nH]2)c2cc(C(=O)NC(C)(C)CO)ccc21 |
| 146 to 149 | O=C(NCC1(O)CCCCCC1)c1cc(-c2ccc(Cl)c(C(=O)O)n2)ccc1Cl |
| 137 to 138 | O=S(=O)(c1ccc(C(F)(F)F)cc1)N1c2cc(F)c(F)cc2-c2[nH]ncc2[C@H]1C1CC1 |
| 142 to 144 | Cc1cc(OCC(=O)O)c2c(c1C)-c1nc(SCCC(c3ccccc3)c3ccccc3)sc1C2 |
| 160 to 180 | COc1cc2nc(CSc3ncnc4[nH]cnc34)n(-c3ccccc3Cl)c(=O)c2cc1OC |
| 228 to 231 | c1ccc(-c2ncc(-c3cnc(-c4ccccc4)o3)cn2)cc1 |
| 134 to 135 | CC1=C(Cc2ccc(Cl)cc2)C(=O)C2C=CC=CC2C1=O (stereo not given) |
| 163 | COc1cc(Nc2nccc(-c3ccsc3)n2)cc(OC)c1OC |
| 219 | COc1ccccc1C1CSc2ccccc2NC1=O (stereo not given) |
| 102 to 106 | Cc1ccc(S(=O)(=O)c2ccc(N3CCNCC3)cc2N)cc1 |
| 122 to 123 | CCOC(=O)N1CCOC(c2ccccc2)(c2ccccc2)CC1 |
| 205 to 206 | O=C1SCC(O)=C1Cc1ccc2ccccc2c1Br |
| 114 | Cn1c([N+](=O)[O-])cnc1-c1cc(CCC(=O)O)on1 |
| 260 to 262 | CC(=O)Nc1cc(C(=O)OC2OC(COC(=O)c3ccccc3)C(OC3OC4COC(c5ccncc5)OC4C(O)C3O)C(O)C2O)ccc1Cl (stereo not given) |
| 229 | Cc1cc([N+](=O)[O-])ccc1C(=O)Nc1ccc2ccc(Cl)nc2n1 |
| 65 to 67 | CCOC(=O)C(Cc1ccc(C(=O)C(C)(C)C)cc1)(Cc1ccc(C(=O)C(C)(C)C)cc1)C(=O)OCC |
| 57 to 60 | OCC1=CCN(Cc2ccccc2)CC1 |

Reference: a melting point compilation (Tetko et al.; mined from patent text by program, amines drawn as free bases though some values may be those of a salt)
